experiment: Waters ACQUITY UPLC BEH C18, 100 × 2.1 mm, 1.7 µm, 40 °C, 0.3 to 0.4 mL/min, estimated dead time 0.63 min; A: water + 0.1% formic acid; B: methanol + 0.1% formic acid; gradient (min/%B) 0/0.5 0.1/0.5 10/80 10.1/99.5 12/99.5; conditions: stereoisomer not certain

SMILES | LC retention time
CC=C1CN(C)C2CC3(C(=O)N(OC)c4ccccc43)C3CC1C2CO3 (stereo not drawn) | 4.63 min
O=C(Cc1c[nH]c2ccccc12)NC(Cc1c[nH]c2ccccc12)C(=O)O (stereo not drawn) | 6.19 min
COc1c(CC=C(C)C)c(O)cc2c1C1Oc3cc(O)c(CC=C(C)C)cc3C1CO2 (stereo not drawn) | 9.29 min
CCN1CC2(COC)C(OC(C)=O)CC(OC)C34C5CC6(O)C(OC)C(O)C(OC(C)=O)(C5C6OC(=O)c5ccccc5)C(C(OC)C23)C14 (stereo not drawn) | 6.17 min
c1ccc2c3ccn4cc5c(cc4c-3nc2c1)CCCC5 | 5.23 min
CCCCc1ccc(C(=O)O)nc1 | 2.79 min
O=C(O)C1CCCN1C(=O)C1CCCN1 (stereo not drawn) | 1.82 min
CSCC1OC(n2cnc3c(N)ncnc32)C(O)C1O (stereo not drawn) | 2.7 min
Nc1ncnc2c1ncn2C1CC(O)C(CO)O1 (stereo not drawn) | 1.93 min
COc1cc(C2c3cc4c(cc3C(O)C3COC(=O)C23)OCO4)cc(OC)c1OC (stereo not drawn) | 6.26 min
O=c1cc2oc(-c3ccc(O)cc3)ccc-2c(O)c1 | 3.87 min
COc1ccc(-c2cc(=O)c3c(OC)cc(OC)c(-c4cc(-c5cc(=O)c6c(OC)cc(OC)cc6o5)ccc4OC)c3o2)cc1 | 7.39 min
CS(=O)CCCCCCCCC(=O)O (stereo not drawn) | 4.43 min
Oc1cc(O)c2c(c1)OC(c1ccc(O)c(O)c1)C(O)C2c1c(O)cc(O)c2c1OC(c1ccc(O)c(O)c1)C(O)C2c1c(O)cc(O)c2c1OC(c1ccc(O)c(O)c1)C(O)C2 (stereo not drawn) | 3.46 min
CC1CCC2C(C)C3C(CC4C5CC=C6CC(OC7OC(CO)C(O)C(OC8OC(CO)C(O)C(O)C8O)C7OC7OC(C)C(O)C(O)C7O)CCC6(C)C5CCC43C)N2C1 (stereo not drawn) | 4.95 min
CCC1(O)C(=O)OCc2c1cc1n(c2=O)Cc2cc3c([N+](=O)[O-])cccc3nc2-1 (stereo not drawn) | 5.87 min
O=C(O)c1cc(O)c(O)c(O)c1 | 2.04 min
COC(=O)CC(OC(=O)C=Cc1cc(OC)c(O)c(OC)c1)C(=O)OC (stereo not drawn) | 3.28 min
O=C(C=Cc1ccc(O)c(O)c1)OC1CC(O)(C(=O)O)CC(O)C1O (stereo not drawn) | 3.13 min
CC(CS)C(=O)N1CCCC1C(=O)O (stereo not drawn) | 4.05 min

SMILES | LC retention time
COc1ccc(CC2c3cc(OC)c(OC)cc3CCN2C)cc1OC (stereo not drawn) | 4.26 min
CC(=O)Oc1ccc(C=Cc2cc(OC(C)=O)cc(OC(C)=O)c2)cc1 | 8.46 min
Nc1ncnc2c1ncn2C1OC(CO)C(O)C1O (stereo not drawn) | 1.88 min
CSCCCCCCCN=C=S | 9.19 min
COc1cc(C=Cc2ccc(O)cc2)cc(OC)c1 | 8.02 min
COc1cc(C=CNC(=O)C=Cc2ccc(O)c(OC)c2)ccc1O | 4.38 min
O=c1cc(-c2ccccc2)oc2cc(O)c(O)c(O)c12 | 6.4 min
COc1cc(O)c(CC=C(C)C)c(O)c1C(=O)C=Cc1ccc(O)cc1 | 9.06 min
O=c1[nH]c(=O)c2ncn(C3OC(CO)C(O)C3O)c2[nH]1 (stereo not drawn) | 2.07 min
O=C(C=Cc1ccc(O)cc1)OC1CC(O)(C(=O)O)CC(O)C1O (stereo not drawn) | 3.08 min
CCCCCCCCCCCCCCCC(=O)OCC(O)COP(=O)([O-])OCC[N+](C)(C)C (stereo not drawn) | 9.91 min
C=CC1CN2CCc3c([nH]c4ccccc34)C2CC1C(=COC)C(=O)OC (stereo not drawn) | 5.68 min
O=C1CC(c2ccc(O)cc2)Oc2cc(O)cc(O)c21 (stereo not drawn) | 5.95 min
O=C(O)CC1CCC(=O)C1CC=CCCO (stereo not drawn) | 3.39 min
CSCC(NC(=O)CCC(N)C(=O)O)C(=O)O (stereo not drawn) | 2.02 min
C=CC12CN(C)C3C4COC(CC41)C1(C(=O)N(OC)c4ccccc41)C32 (stereo not drawn) | 4.05 min
COc1cc(CCN)ccc1O | 2.06 min
CCCCCCCCC=CCCCCCCCC(=O)OCC(O)COP(=O)(O)OCCN (stereo not drawn) | 10.2 min
CC=C1CC(C)C(C)(O)C(=O)OCC2=CCN3CCC(OC1=O)C23 (stereo not drawn) | 3.8 min
O=C(C=CC=Cc1ccc2c(c1)OCO2)N1CCCCC1 | 7.84 min

The remaining lines, values ahead:

LC retention time | SMILES
2.88 min | O=c1cc2oc(-c3ccc([O-])c(O)c3)c(OC3OC(CO)C(O)C(O)C3OC3OCC(O)C(O)C3O)cc-2c(O)c1 (stereo not drawn)
4.59 min | O=C(O)CC(=O)OCC1OC(Oc2cc(O)c3c(=O)cc(-c4ccc(O)c(O)c4)oc3c2)C(O)C(O)C1O (stereo not drawn)
4.89 min | O=C(O)CC(=O)OCC1OC(Oc2cc(O)c3c(=O)c(-c4ccc(O)cc4)coc3c2)C(O)C(O)C1O (stereo not drawn)
4.08 min | O=C1CC(c2ccc(OC3OC(CO)C(O)C(O)C3O)cc2)Oc2cc(O)ccc21 (stereo not drawn)
4.03 min | O=c1c(OC2OC(CO)C(O)C(O)C2O)c(-c2ccc(O)c(O)c2)oc2cc(O)cc(O)c12 (stereo not drawn)
8.94 min | CC1(C)CC2C3=CCC4C5(C)CCC(O)C(C)(CO)C5CCC4(C)C3(C)CCC2(C)C(O)C1O (stereo not drawn)
8.04 min | CCCCC(=O)OC1C(CO)OC(OC2(CO)OC(CO)C(OC(C)=O)C2O)C(OC(=O)CCC)C1OC(=O)CCCC (stereo not drawn)
5.43 min | COc1ccc(-c2coc3cc(OC4OC(COC(=O)CC(=O)O)C(O)C(O)C4O)ccc3c2=O)cc1 (stereo not drawn)
2.49 min | OCC1OC(Oc2cc(O)cc3[o+]c(-c4ccc(O)c(O)c4)c(OC4OC(CO)C(O)C(O)C4OC4OCC(O)C(O)C4O)cc23)C(O)C(O)C1O (stereo not drawn)
7.11 min | CC1OC(OC2CCC3(C)C(CCC4(C)C3C=CC3=C5CC(C)(C)CCC5(CO)C(O)CC34C)C2(C)CO)C(O)C(OC2OC(CO)C(O)C(O)C2O)C1O (stereo not drawn)
4.28 min | CC1OC(OCC2OC(Oc3cc(O)c4c(c3)OC(c3ccc(O)cc3)CC4=O)C(O)C(O)C2O)C(O)C(O)C1O (stereo not drawn)
3.72 min | COc1cc(-c2oc3cc(O)cc(O)c3c(=O)c2OC2OC(CO)C(O)C(O)C2OC2OC(C)C(O)C(O)C2O)ccc1O (stereo not drawn)
3.65 min | CC1OC(OCC2OC(Oc3c(-c4ccc(O)c(O)c4)oc4cc(O)cc(O)c4c3=O)C(OC3OCC(O)C(O)C3O)C(O)C2O)C(O)C(O)C1O (stereo not drawn)
4.85 min | O=C(CCc1ccccc1)c1c(O)cc(O)cc1OC1OC(CO)C(O)C(O)C1O (stereo not drawn)
2.71 min | O=S(=O)(O)ON=C(CC(O)c1ccccc1)SC1OC(CO)C(O)C(O)C1O (stereo not drawn)
4.09 min | O=C1CC(c2ccc(O)c(O)c2)Oc2cc(OC3OC(CO)C(O)C(O)C3O)cc(O)c21 (stereo not drawn)
4.64 min | O=c1c(O)c(-c2ccc(O)c(O)c2)oc2c(OC3OC(CO)C(O)C(O)C3O)c(O)cc(O)c12 (stereo not drawn)
3.76 min | COc1cc(-c2[o+]c3cc(O)cc(OC4OC(CO)C(O)C(O)C4O)c3cc2OC2OC(COC3OC(C)C(OC(=O)C=Cc4ccc(O)cc4)C(O)C3O)C(O)C(O)C2O)cc(O)c1O (stereo not drawn)
4.94 min | CC1CCC2C(C)C3C(CC4C5CC=C6CC(OC7OC(CO)C(O)C(O)C7OC7OC(C)C(O)C(O)C7O)CCC6(C)C5CCC43C)N2C1 (stereo not drawn)

LC retention time | SMILES
3.54 min | O=c1c(OC2OC(CO)C(O)C(O)C2O)c(-c2ccc(OC3OC(CO)C(O)C(O)C3O)c(O)c2)oc2cc(O)cc(O)c12 (stereo not drawn)
5.81 min | CC1(C)CC2C3=CCC4C5(C)CCC(OC6OC(C(=O)O)C(O)C(O)C6OC6OC(CO)C(O)C(O)C6OC6OC(CO)C(O)C(O)C6O)C(C)(CO)C5CCC4(C)C3(C)CCC2(C)C(O)C1O (stereo not drawn)
5.48 min | CC(=O)OC1C(C(=O)O)OC(OC2C(O)C(O)OC(CO)C2O)C(O)C1OC1OC(CO)C(O)C(O)C1O (stereo not drawn)
3.03 min | C=C1CC23CC4C5C6(C)CC(OC(C)=O)CC57C2C(O)C1C(O)C3(O)C7N4C6 (stereo not drawn)
6.36 min | CC1(C(=O)O)CCC2(C)CCC3(C)C(=CC(=O)C4C5(C)CCC(OC6OC(C(=O)O)C(O)C(O)C6OC6OC(C(=O)O)C(O)C(O)C6O)C(C)(CO)C5CCC43C)C2C1 (stereo not drawn)
4.08 min | COc1cc2oc(-c3ccc(O)cc3)cc(=O)c2c(O)c1C1OC(CO)C(O)C(O)C1O (stereo not drawn)
7.36 min | CC(=O)N1CC(C)CCC12OC1CC3C4CC=C5CC(O)CCC5(C)C4CCC3(C)C1C2C (stereo not drawn)
2.79 min | COc1cc(-c2[o+]c3cc(O)cc(OC4OC(CO)C(O)C(O)C4O)c3cc2OC2OC(CO)C(O)C(O)C2O)ccc1O (stereo not drawn)
4.24 min | CC1CNC2(OC3CC4C5CCC6CC(OC7OC(CO)C(OC8OC(CO)C(O)C(O)C8OC8OC(CO)C(O)C(O)C8O)C(O)C7O)CCC6(C)C5CCC4(C)C3C2C)C(O)C1 (stereo not drawn)
3.35 min | CC1C2CCC3C4CC=C5CC(N(C)C)CCC5(C)C4CCC32CN1C (stereo not drawn)
2.07 min | CCC(C)C(NCC1(O)OCC(O)C(O)C1O)C(=O)NC(CCC(=O)O)C(=O)O (stereo not drawn)
4.36 min | COc1cc(-c2cc(=O)c3c(O)cc(OC4OC(CO)C(O)C(O)C4OC4OC(C)C(O)C(O)C4O)cc3o2)cc(OC)c1O (stereo not drawn)
7.06 min | CC1OC(OC2C(OC3C(OC4CCC5(C)C(CCC6(C)C5CC=C5C7CC(C)(C)CC(O)C7(C)CCC56C)C4(C)CO)OC(C(=O)O)C(O)C3O)OC(C(=O)O)C(O)C2O)C(O)C(O)C1O (stereo not drawn)
4.5 min | CC(O)(CC(=O)O)CC(=O)OCC1OC(Oc2c(-c3ccc(O)cc3)oc3cc(O)cc(O)c3c2=O)C(O)C(O)C1O (stereo not drawn)
3.04 min | O=C1CC(c2ccc(O)cc2)Oc2c1c(O)cc(O)c2C1OC(CO)C(O)C(O)C1O (stereo not drawn)
6.59 min | CC(C)=CCCC(C)(OC1OC(CO)C(O)C(O)C1O)C1CCC2(C)C1C(O)CC1C3(C)CCC(O)C(C)(C)C3C(O)CC12C (stereo not drawn)
4.29 min | CC(=O)OC1C(C)CNC2C(C)C3C(CC4C5CCC6CC(OC7OC(CO)C(OC8OC(CO)C(O)C(OC9OCC(O)C(O)C9O)C8OC8OC(CO)C(O)C(O)C8O)C(O)C7O)CCC6(C)C5CCC43C)OC21O (stereo not drawn)
4 min | CC1OC(OCC2OC(Oc3c(-c4ccc(O)cc4)oc4cc(O)cc(O)c4c3=O)C(O)C(O)C2O)C(O)C(O)C1O (stereo not drawn)
3.86 min | CC1OC(OCC2OC(Oc3c(-c4ccc(O)c(O)c4)oc4cc(O)cc(O)c4c3=O)C(O)C(O)C2O)C(O)C(O)C1O (stereo not drawn)

Reference: the RepoRT retention time repository
